Legend:
[1] = system: isolated gastric fundic gland; assay: CAP: Acid Secretion Inhibition Test in vitro ([^14 C]-aminopyrine uptake); assay type: cell-based, male Japanese White rabbit; conditions: Oryctolagus cuniculus, rabbit isolated gastric fundic gland, 10^-5 M, histamine 10^-5 M; read-out: CAP: Acid secretion inhibitory rate
Protocol: CAP: Acid Secretion Inhibition Test in vitro (i) Meaning The acid secretion inhibitory activity in a cell level is studied. It can also be used for studying the mechanism of the effect. (ii) Method (ii)-(a) Preparation of isolated gastric gland suspension First, an isolated gastric fundic gland sample was prepared. Namely, a male Japanese White rabbit (2.5 to 3 kg) was anesthetized to death with Nembutal™ and then the abdomen was incised. Immediately thereafter, the stomach was removed and, after its pyloric and cardiac antrum were severed, incised along its greater curvature into two sheets. The gastric contents adhering to the mucosal surface was washed out with ice-cooled PBS (-) and then carefully washed therein. The gastric wall was spread on a cork board with its mucosal surface facing up and the feed and mucus thereon were completely removed with sterile gauze. The mucosa was separated therefrom by a spatula and then collected in ice-cooled PBS (-). After being washed twice with PBS (-), the mucosa was minced into 2-3 mm^3 pieces by scissors. These pieces were further washed twice with a nutrient solution. The nutrient solution comprises 132.4 mM of NaCl, 5.4 mM of KCl, 5 mM of Na2 HPO4 ·12H2 O, 1 mM of NaH2 PO4 ·2H2 O, 1.2 mM of MgSO4, 1 mM of CaCl2, 25 mM of HEPES, 2 mg/ml of glucose, and 1 mg/ml of BSA. Into 70 ml of the nutrient solution containing 1 mg/ml of collagenase, minced mucosal pieces were dispersed and intensely stirred in a conical flask with a stirrer at 37° C. for 40 to 60 minutes. […] The nutrient solution was added to the reaction solution so as to attain the total amount of about 200 ml. After being filtered through a mesh, the suspension was divisionally introduced into 50 ml centrifuge tubes and left for 15 minutes such that gastric fundic gland was deposited. The supernatant was repeatedly removed by an aspirator, dispersed in the nutrient solution, and then left such that the gastric fundic gland was washed three times. At this time, without using a pipette, the suspension was alternately introduced into two centrifuge tubes so as to effect dispersion. The number of cells was counted under microscope and adjusted to 1.6×10^6 cells/ml. (ii)-(b) [^14 C]-aminopyrine uptake test Then [^14 C]-aminopyrine uptake test was performed. After an Eppendorf tube was weighed, 10 μl (final concentration: 10^-5 M) of histamine dissolved in the above-mentioned nutrient solution, 10 μl (final concentration: 10 ^-5 M) of the test compound dissolved in DMSO, and 10 μl (final concentration: 0.05 μCi/ml) of [^14 C]-aminopyrine diluted with the nutrient solution were introduced therein and then 970 μl of the isolated gastric fundic gland suspension prepared above were added thereto. Subsequently, this mixture was shaken at 37° C. for 40 minutes at 125 cycles/minute. After being centrifuged for 30 minutes 200 μl of its supernatant was collected into a mini-vial, while the rest was removed by an aspirator. The gland pellet was completely dried as the tube with its lid being opened was kept for one night in a drying oven at 80° C. and then the weight was determined at room temperature. Then 100 μl of 1N KOH was added thereto an the tube with its lid being closed was treated at 60° C. for 1 to 2 hours so as to dissolve the pellet. Then, the contents thereof were transferred to a mini-vial. Into the mini-vial containing the supernatant or gland pellet, 4 ml of Atomlite™ was added and then the radioactivity was measured by a liquid scintillation counter. Here, after the radioactivity of the gland pellet was corrected by using a sample in which 20 mM of NaSCN was added so as to cancel the hydrogen ion concentration gradient, the integration ratio of aminopyrine specifically trapped by the gland pellet was calculated. This experiment was performed in duplicate. (ii)-(c) Calculation of the accumulation rate of aminopyrine Here, its principle will be briefly explained. […]

[2] = system: stress ulcer formation; assay: WIS: Restraint and Water Immersion Stress-Induced Ulcer Inhibition Test; assay type: in vivo, Male Crj:SD or Slc:SD rats; conditions: rat, 100 mg/kg orally, 7 hours water immersion stress
Protocol: WIS: Restraint and Water Immersion Stress-Induced Ulcer Inhibition Test (i) Meaning The degree of inhibition of the stress ulcer formation is tested. (ii) Method Male Crj:SD or Slc:SD rats (6 to 7-weeek-old) were fasted overnight, but allowed free access to water. Each group has 5 to 8 of these rats. The sample compound was dissolved or suspended in an aqueous solution of 0.3% sodium carboxymethylcellulose or 0.05% Tween 80 and then was orally administered (100 mg/10 ml/kg). To a control group, the vehicle was administered. 10 minutes later, the rats were placed in a stress cage and immersed to the level of xiphoid process in a water bath (21° C.) for 7 hours. At the end of the stress, the rats were sacrificed by inhalation of ether or carbon dioxide. Then, the stomach of each was removed, inflated by injecting 10 ml of 5% formalin neutral buffer solution, and immersed in 1% formalin neutral buffer solution for 30 minutes or more to be fixed. The stomach was incised along the greater curvature and then the length of each erosion in the glandular portion was determined under dissecting microscope. The sum of the length of erosions per stomach was defined as ulcer index (UI). (iii) Judgment Standard […]

[3] = system: Slc:ICR mice; set-up: species or system Male Slc:ICR mice; conditions: mouse, in vivo
Protocol: AT: Single Dose Toxicity Pretest
Male Slc:ICR mice (5-week-old) were used. Each group has 3 to 5 mice and each mouse was fasted, but allowed free access to water, for 4 to 5 hours from 9 a.m. in the test day. Then, 2,000 mg/10 ml/kg of the sample compound dissolved or suspended in an aqueous solution of 0.5% sodium carboxymethylcellulose was orally administered thereto. To a control, only the vehicle was administered. […] The body weight was measured before and after the fasting as well as at the same time everyday. The dead animals were immediately subjected to autopsy and their organs were observed by naked eyes. Also, the living animals were sacrificed with ether or carbon dioxide one week after the administration and then their organs were observed by naked eyes.
The toxicity at the single dose of 2,000 mg/kg of the sample compound was expressed as being classified into 5 levels.
5: Mortality rate is 0%; no toxicity is found at all both in behavior and organs.
4: Mortality rate is 0%; while no toxicity is found in organs, slight toxicity is observed in behavior and body weight increase.
3: While there is a dead animal (though not all the animals are dead), no toxicity is found in organs.
2: Regardless of whether there is a dead animal or not, toxicity is found in organs.
1: All the animals are dead.

SMILES	inhibition at 10 µM [1] [%]	WIS: ulcer formation inhibitory rate [2] [%]	AT: toxicity at the single dose (5 levels) [3]
CCN(CC)CCSc1nnc(NC(=O)c2ccc(C(C)C)cc2)s1 [Example 1, 2-(4-isopropylbenzoyl)amino-5-diethylaminoethylthio-1,3,4-thiadiazole]	101	83	–
CC(C)c1ccc(C(=O)Nc2nnc(SCCN(C(C)C)C(C)C)s2)cc1 [Example 2, 2-(4-isopropylbenzoyl)amino-5-diisopropylaminoethylthio-1,3,4-thiadiazole]	100	80	5
CCN(CC)CCSc1nnc(NC(=O)c2ccc(C(C)(C)C)cc2)s1 [Example 4, 2-(4-tert-butylbenzoyl)amino-5-diethylaminoethylthio-1,3,4-thiadiazole]	100	79	–
CCN(CC)CCSc1nnc(NC(=O)c2ccc(OC/C=C(\C)CCC=C(C)C)cc2)s1 [Example 10, 2-(4-geranyloxybenzoyl)amino-5-diethylaminoethylthio-1,3,4-thiadiazole]	100	48	5
CC(C)=CCC/C(C)=C/COc1ccc(C(=O)Nc2nnc(SCCN3CCCCC3)s2)cc1 [Example 12, 2-(4-geranyloxybenzoyl)amino-5-piperidinoethylthio-1,3,4-thiadiazole]	99	44	5
CC(C)=CCC/C(C)=C/COc1ccc(C(=O)Nc2nnc(SCc3ccccn3)s2)cc1 [Example 14, 2-(4-geranyloxybenzoyl)amino-5-(2-pyridylmethyl)thio-1,3,4-thiadiazole]	45	30	5
CCSc1nnc(NC(=O)c2ccc(OC/C=C(\C)CCC=C(C)C)cc2)s1 [Example 15, 2-(4-geranyloxybenzoyl)amino-5-ethylthio-1,3,4-thiadiazole]	17	43	5
